Assay results as given in PubChem BioAssay AID1963977 (Molecular Pharmacology Branch, DTP, NCI, 2024).
One block for each molecule: values may come before it.

Test system: 624824-186-R-J3-PDC multicell spheroids, viability
Test: Anticancer human tumor 624824-186-R-J3-PDC patient-derived colon adenocarcinoma cell line growth inhibition [PI3K]
Conditions: for IC50: curve of first compound; for viability, T/C: stronger effect = lower value
In short: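 Stroma-containing spheroids: tumor line, pooled-donor HUVEC, hMSC. Treatments: targeted agents with PI3K inhibitors. Dosing: clinically relevant, half-log spacing, 10 microM ceiling without known Cmax. Read-out: cell viability.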

[1] = second compound 0.0316 µM, first compound 0.0316 µM
[2] = second compound 0.0316 µM, first compound 0.1 µM
[3] = second compound 0.0316 µM, first compound 0.316 µM
[4] = second compound 0.0316 µM, first compound 1 µM
[5] = second compound 0.0316 µM, first compound 3.16 µM
[6] = second compound 0.0316 µM, first compound 10 µM
[7] = second compound 0.1 µM, first compound 0.0316 µM
[8] = second compound 0.1 µM, first compound 0.1 µM
[9] = second compound 0.1 µM, first compound 0.316 µM
[10] = second compound 0.1 µM, first compound 1 µM
[11] = second compound 0.1 µM, first compound 3.16 µM
[12] = second compound 0.1 µM, first compound 10 µM
[13] = second compound 0.316 µM, first compound 0.0316 µM
[14] = second compound 0.316 µM, first compound 0.1 µM
[15] = second compound 0.316 µM, first compound 0.316 µM
[16] = second compound 0.316 µM, first compound 1 µM
[17] = second compound 0.316 µM, first compound 3.16 µM
[18] = second compound 0.316 µM, first compound 10 µM
[19] = second compound 1 µM, first compound 0.0316 µM
[20] = second compound 1 µM, first compound 0.1 µM
[21] = second compound 1 µM, first compound 0.316 µM
[22] = second compound 1 µM, first compound 1 µM
[23] = second compound 1 µM, first compound 3.16 µM
[24] = second compound 1 µM, first compound 10 µM
[25] = second compound 3.16 µM, first compound 0.0316 µM
[26] = second compound 3.16 µM, first compound 0.1 µM
[27] = second compound 3.16 µM, first compound 0.316 µM
[28] = second compound 3.16 µM, first compound 1 µM
[29] = second compound 3.16 µM, first compound 3.16 µM
[30] = second compound 3.16 µM, first compound 10 µM
[31] = second compound 10 µM, first compound 0.0316 µM
[32] = second compound 10 µM, first compound 0.1 µM
[33] = second compound 10 µM, first compound 0.316 µM
[34] = second compound 10 µM, first compound 1 µM
[35] = second compound 10 µM, first compound 3.16 µM
[36] = second compound 10 µM, first compound 10 µM
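Further: spheroids exposed to agents for seven days before luminescence read.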
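Wherever viability, T/C is given: luminescent signal used as a stand-in for spheroid viability; percent viability relative to DMSO vehicle control wells taken as 100%.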

Structure (SMILES): C=CC(=O)N1CCN(c2nc(=O)n(-c3c(C)ccnc3C(C)C)c3nc(-c4c(O)cccc4F)c(F)cc23)C(C)C1 (stereo not given) + Cc1nc(NC(=O)N2CCCC2C(N)=O)sc1-c1ccnc(C(C)(C)C(F)(F)F)c1
IC50 (second compound 0.0316 µM): > 10 µM | IC50 (second compound 0.1 µM): > 10 µM | IC50 (second compound 0.316 µM): > 10 µM | IC50 (second compound 1 µM): > 10 µM | IC50 (second compound 3.16 µM): > 10 µM | IC50 (second compound 10 µM): > 10 µM | viability, T/C [1]: 103% | viability, T/C [2]: 108% | viability, T/C [3]: 106% | viability, T/C [4]: 94% | viability, T/C [5]: 107% | viability, T/C [6]: 113% | viability, T/C [7]: 112% | viability, T/C [8]: 101% | viability, T/C [9]: 95.5% | viability, T/C [10]: 110% | viability, T/C [11]: 113% | viability, T/C [12]: 105% | viability, T/C [13]: 109% | viability, T/C [14]: 109% | viability, T/C [15]: 116% | viability, T/C [16]: 106% | viability, T/C [17]: 103% | viability, T/C [18]: 103% | viability, T/C [19]: 103% | viability, T/C [20]: 108% | viability, T/C [21]: 104% | viability, T/C [22]: 116% | viability, T/C [23]: 105% | viability, T/C [24]: 101% | viability, T/C [25]: 83.6% | viability, T/C [26]: 92.8% | viability, T/C [27]: 90.9% | viability, T/C [28]: 78.7% | viability, T/C [29]: 95.6% | viability, T/C [30]: 78.5% | viability, T/C [31]: 68.4% | viability, T/C [32]: 69% | viability, T/C [33]: 71.2% | viability, T/C [34]: 76.1% | viability, T/C [35]: 69.8% | viability, T/C [36]: 65.3%

Structure (SMILES): CCN1CCN(Cc2ccc(Nc3ncc(F)c(-c4cc(F)c5nc(C)n(C(C)C)c5c4)n3)nc2)CC1 + Cc1nc(NC(=O)N2CCCC2C(N)=O)sc1-c1ccnc(C(C)(C)C(F)(F)F)c1
IC50 (second compound 0.0316 µM): > 1 µM | IC50 (second compound 0.1 µM): > 1 µM | IC50 (second compound 0.316 µM): > 1 µM | IC50 (second compound 1 µM): > 1 µM | IC50 (second compound 3.16 µM): 0.753 µM | IC50 (second compound 10 µM): 0.0296 µM | viability, T/C (second compound 0.0316 µM, first compound 0.00316 µM): 106% | viability, T/C (second compound 0.0316 µM, first compound 0.01 µM): 99.3% | viability, T/C [1]: 106% | viability, T/C [2]: 108% | viability, T/C [3]: 100% | viability, T/C [4]: 94.2% | viability, T/C (second compound 0.1 µM, first compound 0.00316 µM): 106% | viability, T/C (second compound 0.1 µM, first compound 0.01 µM): 109% | viability, T/C [7]: 112% | viability, T/C [8]: 107% | viability, T/C [9]: 97.5% | viability, T/C [10]: 89.6% | viability, T/C (second compound 0.316 µM, first compound 0.00316 µM): 102% | viability, T/C (second compound 0.316 µM, first compound 0.01 µM): 116% | viability, T/C [13]: 97.4% | viability, T/C [14]: 94.6% | viability, T/C [15]: 88.1% | viability, T/C [16]: 73.1% | viability, T/C (second compound 1 µM, first compound 0.00316 µM): 101% | viability, T/C (second compound 1 µM, first compound 0.01 µM): 105% | viability, T/C [19]: 98.1% | viability, T/C [20]: 81.6% | viability, T/C [21]: 62.9% | viability, T/C [22]: 58.3% | viability, T/C (second compound 3.16 µM, first compound 0.00316 µM): 85.3% | viability, T/C (second compound 3.16 µM, first compound 0.01 µM): 92% | viability, T/C [25]: 77.8% | viability, T/C [26]: 57% | viability, T/C [27]: 47.9% | viability, T/C [28]: 51.6% | viability, T/C (second compound 10 µM, first compound 0.00316 µM): 64.6% | viability, T/C (second compound 10 µM, first compound 0.01 µM): 59.6% | viability, T/C [31]: 50.4% | viability, T/C [32]: 41.5% | viability, T/C [33]: 36.6% | viability, T/C [34]: 48.6%

Continued, in another order:

IC50 (second compound 0.0316 µM): 5.34 µM | IC50 (second compound 0.1 µM): 5.11 µM | IC50 (second compound 0.316 µM): 4.59 µM | IC50 (second compound 1 µM): 2.85 µM | IC50 (second compound 3.16 µM): 2.03 µM | IC50 (second compound 10 µM): 1.42 µM
Structure (SMILES): CC(C)NCC(C(=O)N1CCN(c2ncnc3c2C(C)CC3O)CC1)c1ccc(Cl)cc1 (stereo not given) + Cc1nc(NC(=O)N2CCCC2C(N)=O)sc1-c1ccnc(C(C)(C)C(F)(F)F)c1
viability, T/C [1]: 108% | viability, T/C [2]: 108% | viability, T/C [3]: 99% | viability, T/C [4]: 78.2% | viability, T/C [5]: 59.8% | viability, T/C [6]: 39.7% | viability, T/C [7]: 107% | viability, T/C [8]: 92.8% | viability, T/C [9]: 93.2% | viability, T/C [10]: 77.1% | viability, T/C [11]: 53.2% | viability, T/C [12]: 43.2% | viability, T/C [13]: 104% | viability, T/C [14]: 104% | viability, T/C [15]: 91.1% | viability, T/C [16]: 75.8% | viability, T/C [17]: 53.3% | viability, T/C [18]: 41.9% | viability, T/C [19]: 95.5% | viability, T/C [20]: 105% | viability, T/C [21]: 86.8% | viability, T/C [22]: 72.6% | viability, T/C [23]: 46.5% | viability, T/C [24]: 39.5% | viability, T/C [25]: 86.8% | viability, T/C [26]: 77.4% | viability, T/C [27]: 79.8% | viability, T/C [28]: 59% | viability, T/C [29]: 44.2% | viability, T/C [30]: 32.1% | viability, T/C [31]: 68.1% | viability, T/C [32]: 64.9% | viability, T/C [33]: 70.8% | viability, T/C [34]: 52.5% | viability, T/C [35]: 41.2% | viability, T/C [36]: 32.8%

IC50 (second compound 0.0316 µM): 3.91 µM | IC50 (second compound 0.1 µM): 2.84 µM | IC50 (second compound 0.316 µM): 2.44 µM | IC50 (second compound 1 µM): 2.85 µM | IC50 (second compound 3.16 µM): 1.77 µM | IC50 (second compound 10 µM): 0.933 µM
Structure (SMILES): Cn1ncc(Cl)c1-c1cc(C(=O)NC(CN)Cc2cccc(F)c2)sc1Cl (stereo not given) + Cc1nc(NC(=O)N2CCCC2C(N)=O)sc1-c1ccnc(C(C)(C)C(F)(F)F)c1
viability, T/C [1]: 107% | viability, T/C [2]: 95.5% | viability, T/C [3]: 90.2% | viability, T/C [4]: 71.7% | viability, T/C [5]: 52.4% | viability, T/C [6]: 36.4% | viability, T/C [7]: 104% | viability, T/C [8]: 103% | viability, T/C [9]: 98.8% | viability, T/C [10]: 70.9% | viability, T/C [11]: 49.8% | viability, T/C [12]: 39% | viability, T/C [13]: 108% | viability, T/C [14]: 104% | viability, T/C [15]: 89.4% | viability, T/C [16]: 61% | viability, T/C [17]: 50% | viability, T/C [18]: 36.1% | viability, T/C [19]: 102% | viability, T/C [20]: 87% | viability, T/C [21]: 82.2% | viability, T/C [22]: 70.1% | viability, T/C [23]: 44.9% | viability, T/C [24]: 30.4% | viability, T/C [25]: 76.7% | viability, T/C [26]: 89% | viability, T/C [27]: 81.9% | viability, T/C [28]: 56.7% | viability, T/C [29]: 42.8% | viability, T/C [30]: 26.7% | viability, T/C [31]: 74.5% | viability, T/C [32]: 68% | viability, T/C [33]: 54.8% | viability, T/C [34]: 53.8% | viability, T/C [35]: 37.6% | viability, T/C [36]: 21.6%

IC50 (second compound 0.0316 µM): 8.08 µM | IC50 (second compound 0.1 µM): 5.01 µM | IC50 (second compound 0.316 µM): 1.57 µM | IC50 (second compound 1 µM): 0.783 µM | IC50 (second compound 3.16 µM): 0.223 µM | IC50 (second compound 10 µM): 0.1 µM
Structure (SMILES): Cn1nccc1Nc1nccc(-c2ccn(C(CO)c3ccc(Cl)c(F)c3)c(=O)c2)n1 (stereo not given) + Cc1nc(NC(=O)N2CCCC2C(N)=O)sc1-c1ccnc(C(C)(C)C(F)(F)F)c1
viability, T/C [1]: 119% | viability, T/C [2]: 105% | viability, T/C [3]: 90.7% | viability, T/C [4]: 74.7% | viability, T/C [5]: 55% | viability, T/C [6]: 49.5% | viability, T/C [7]: 109% | viability, T/C [8]: 104% | viability, T/C [9]: 83.6% | viability, T/C [10]: 73% | viability, T/C [11]: 56.3% | viability, T/C [12]: 40.9% | viability, T/C [13]: 106% | viability, T/C [14]: 110% | viability, T/C [15]: 78% | viability, T/C [16]: 58% | viability, T/C [17]: 42% | viability, T/C [18]: 31.8% | viability, T/C [19]: 103% | viability, T/C [20]: 89.5% | viability, T/C [21]: 72.7% | viability, T/C [22]: 43.2% | viability, T/C [23]: 29.6% | viability, T/C [24]: 25.4% | viability, T/C [25]: 84.5% | viability, T/C [26]: 77.7% | viability, T/C [27]: 37.6% | viability, T/C [28]: 21.3% | viability, T/C [29]: 17.8% | viability, T/C [30]: 16.2% | viability, T/C [31]: 62.2% | viability, T/C [32]: 50.4% | viability, T/C [33]: 27.3% | viability, T/C [34]: 14.1% | viability, T/C [35]: 10.9% | viability, T/C [36]: 7.57%
